# System: shaved dorsal portion of each guinea pig
# Assay: Suppression of UVB-induced pigmentation, serum applied in advance then device
# Format: in vivo
# Conditions: serum 80 μL (20 μL/cm^2) applied, then 150 μm array device; from the 4th day of device application onward
# Description: A serum containing 4-(4-hydroxyphenyl)-2-butanol as an active ingredient solution was applied at 80 μL (20 μL/cm^2) to the shaved dorsal portion of each guinea pig, and then, a device having an array provided with microprotrusions was prepared for the purpose of stretching the skin by the microprotrusions of the array. The array was made of polylactic acid as a material and was of 150 μm as the length of the protrusions, 841 protrusions/cm^2 as the density of the protrusions, and 1 cm^2 as the area, and for a device, the array was fixed onto a covering member (holding member) prepared by stacking a rubber-based pressure-sensitive adhesive layer onto a support (3 cm×5 cm) made of nonwoven fabric.
smiles,measurement,value
CC(O)CCc1ccc(O)cc1 (stereo not shown) [4-(4-hydroxyphenyl)-2-butanol],effect of suppressing pigmentation attributed to UVB irradiation,effect of suppressing pigmentation attributed to UVB irradiation was observed

# Reference: patent publication US20130072874A1, “DEVICE HAVING ARRAY PROVIDED WITH FINE PROTRUSIONS” (HISAMITSU PHARMACEUTICAL CO., INC., priority 2010, published 2013)
